# Experimental data: patent publication US20200172473A1, “DUAL MODULATORS OF FARNESOID X RECEPTOR AND SOLUBLE EPOXIDE HYDROLASE” (JOHANN WOLFGANG GOETHE-UNIVERSITÄT FRANKFURT AM MAIN, priority 2017, published 2020)
# Entries after “also recorded” stand apart in the source; their conditions may differ. Read-outs that look alike come from different tables or passages of the source.
# Tests used:
# [1] = biological target: T1, PPARα (Homo sapiens, UniProt Q07869); experiment: Gal4-hybrid reporter gene assay PPARα in HEK293T cells; format: cell-based; conditions: 10 μM
# T1 construct: pFA-CMV-hPPARα-LBD; expressed in transfected cells; host or cells: HEK293T
# T1 sequence (Q07869 239-466 limits assumed): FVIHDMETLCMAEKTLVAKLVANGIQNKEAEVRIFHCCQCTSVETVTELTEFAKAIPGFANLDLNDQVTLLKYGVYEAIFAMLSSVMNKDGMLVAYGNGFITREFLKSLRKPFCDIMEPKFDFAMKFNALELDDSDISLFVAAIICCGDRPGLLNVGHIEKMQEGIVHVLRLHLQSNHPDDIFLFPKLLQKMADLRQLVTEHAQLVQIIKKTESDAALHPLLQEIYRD
# Description: Hybrid reporter gene assays for PPARα/γ/δ, LXRα/β, RXRα/β/γ, RARα/β/γ, VDR and PXR Plasmids: The Gal4-fusion receptor plasmids pFA-CMV-hPPARα-LBD^52, pFA-CMV-hPPARγ-LBD^52, pFA-CMV-hPPARδ-LBD^52, pFA-CMV-hLXRα-LBD^32 and pFA-CMV-hLXRβ-LBD^32 have been reported previously. […] Frame and sequence of all fusion receptors were verified by sequencing. pFR-Luc (Stratagene) was used as reporter plasmid and pRL-SV40 (Promega) for normalization of transfection efficiency and cell growth.
# Assay procedure: HEK293T cells were grown in DMEM high glucose, supplemented with 10% FCS, sodium pyruvate (1 mM), penicillin (100 U/mL) and streptomycin (100 μg/mL) at 37° C. and 5% CO2. The day before transfection, HEK293T cells were seeded in 96-well plates (2.5·10^4 cells/well). Before transfection, medium was changed to Opti-MEM without supplements. Transient transfection was carried out using Lipofectamine LTX reagent (Invitrogen) according to the manufacturer's protocol with pFR-Luc (Stratagene), pRL-SV40 (Promega) and pFA-CMV-hRXRα-LBD. 5 h after transfection, medium was changed to Opti-MEM supplemented with penicillin (100 U/mL), streptomycin (100 μg/mL), now additionally containing 0.1% DMSO and the respective test compound or 0.1% DMSO alone as untreated control. […] Luminescence was measured with an Infinite M200 luminometer (Tecan Deutschland GmbH). […]
# [2] = tested on: PPARγ target gene FATP; experiment: PPARγ target gene FATP mRNA quantification from mouse livers; format: in vivo; conditions: 10 mg/kg p.o., 8 h post dose; vehicle 101±1
# [3] = tested on: HepG2 cells; experiment: WST-1 cytotoxicity assay; format: cell-based; conditions: up to 100 μM
# [4] = tested on: FXR target genes
# Procedure: Data was analyzed according to the 2^ΔΔCt method and all results were normalized to the values of the house-keeping gene glycerinaldehyde 3-phosphate dehydrogenase (GAPDH). Gene expression of vehicle treated control cells was defined as 100%.
# Two micrograms of total RNA were extracted from HepG2 cells by the Total RNA Mini Kit (R6834-02, Omega Bio-Tek, Inc., Norcross, Ga., USA). […] FXR target gene expression was evaluated by quantitative real time PCR analysis with a StepOnePlus™ System (Life Technologies, Carlsbad, Calif., USA) using PowerSYBRGreen (Life Technologies; 12.5 μL per well). The primers are listed in the supporting information. Each sample was set up in duplicates and repeated in at least three independent experiments. The expression was quantified by the comparative ΔΔCt method and glycerinaldehyde 3-phosphate dehydrogenase (GAPDH) served as reference gene.
# [5] = tested on: FXR target genes; experiment: FXR target gene mRNA quantification from mouse livers; format: in vivo; conditions: 10 mg/kg p.o., 8 h post dose
# Procedure: Three additional animals served as vehicle control.
# A part of the blood was centrifuged (6000 rpm, 10 min, +4° C.) to obtain plasma for quantification of EET/DHET ratio and stored at −80° C. until further evaluation. For liver collection, mice were sacrificed by cervical dislocation after the last blood sampling (8 h post dose). Complete liver was immediately snap-frozen and stored at −80° C. until further evaluation. Plasma and liver were equally obtained from three control mice which received oral application of the vehicle (1% HPMC/Tween 80 (99:1)).
# Quantification of FXR target gene mRNA from mouse livers: Hepatocyte isolation of mouse liver tissue for RT-qPCR: To homogenize the liver samples, one third of each liver was placed on one Falcon™ Cell Strainer with 40 μm pore size (BD Bioscience, Erembodegem, Belgium) in a 50 mL Falcon tube. Every tissue was rinsed with PBS buffer containing 10% FCS and 1% PenStrep and pressed through the cell strainer until 5 mL cell suspension had been collected. The samples were centrifuged at 1200 rpm for to min at 4° C. The supernatant was discarded and the pellets were washed with 5 mL cold PBS buffer and again centrifuged at 1200 rpm for 10 min at 4° C. After discarding the supernatant, the cell pellets were re-suspended in 1 mL PBS and total RNA was extracted using the E. Z. A. Total RNA Kit I (Omega bio-tek Inc., Narcoss, Ga., USA) following the Animal Tissue Protocol. The extracted RNA was used for qRT-PCR and equally treated as described for mRNA quantification from HepG2 cells (see above). PCR primers for the murine genes are listed in the supporting information.
# [6] = tested on: PPARγ target genes CD36 and FAM3A; experiment: PPARγ target gene mRNA quantification (qRT-PCR) in HepG2 cells; format: cell-based; conditions: HepG2, 1 μM
structure (smiles),measurement,setting,value
"CC(C)(C)c1ccc(C(=O)NCc2ccc(NS(C)(=O)=O)cc2Cl)cc1 [compound 57, 4-(tert-Butyl)-N-(2-chloro-4-(methylsulfonamido)benzyl)benzamide]",activity on PPARα,[1],inactive
same,FATP mRNA in mouse liver compared to vehicle set as 100%,[2],not affected
same,cytotoxicity in WST-1 assay,[3],no cytotoxic activity; also recorded: no cytotoxicity
same,BSEP mRNA expression compared to vehicle set as 100%,"[4]; HepG2, 0.1 μM, 8 or 16 h",216±18%
same,FABP1 mRNA expression compared to vehicle set as 100%,"[4]; HepG2, 0.1 μM, 8 or 16 h",183±34%
same,FAS mRNA expression compared to vehicle set as 100%,"[4]; HepG2, 0.1 μM, 8 or 16 h",22±8%
same,FGF19 mRNA expression compared to vehicle set as 100%,"[4]; HepG2, 0.1 μM, 8 or 16 h",309±101%
same,PDK4 mRNA expression compared to vehicle set as 100%,"[4]; HepG2, 0.1 μM, 8 or 16 h",255±54%
same,PPARα mRNA expression compared to vehicle set as 100%,"[4]; HepG2, 0.1 μM, 8 or 16 h",170±11%
same,SHP mRNA expression compared to vehicle set as 100%,"[4]; HepG2, 0.1 μM, 8 or 16 h",242±61%
same,SREBP1c mRNA expression compared to vehicle set as 100%,"[4]; HepG2, 0.1 μM, 8 or 16 h",49±17%
same,BSEP mRNA expression compared to vehicle set as 100%,"[4]; HepG2, 1 μM, 8 or 16 h",222±20%
same,FABP1 mRNA expression compared to vehicle set as 100%,"[4]; HepG2, 1 μM, 8 or 16 h",194±42%
same,FGF19 mRNA expression compared to vehicle set as 100%,"[4]; HepG2, 1 μM, 8 or 16 h",325±77%
same,PDK4 mRNA expression compared to vehicle set as 100%,"[4]; HepG2, 1 μM, 8 or 16 h",226±57%
same,PPARα mRNA expression compared to vehicle set as 100%,"[4]; HepG2, 1 μM, 8 or 16 h",211±10%
same,SHP mRNA expression compared to vehicle set as 100%,"[4]; HepG2, 1 μM, 8 or 16 h",317±78%
same,"amplitude of induction of SHP, PPARα, FGF19, PDK4 and FABP1 relative to CDCA (1b)","[4]; HepG2, % of CDCA (1b) at 50 μM",50-80%
same,increased expression of BSEP in mouse liver,[5],approx. 3 fold
same,increased expression of FGF15 in mouse liver,[5],approx. 2.5 fold
same,increased expression of SHP in mouse liver,[5],approx. 4 fold
same,reduced SREBP1c levels in mouse liver,[5],approx. 5 fold
same,SREBP1c mRNA in mouse liver compared to vehicle set as 100%,[5]; vehicle 82±14,17±10%
same,BSEP mRNA in mouse liver compared to vehicle set as 100%,[5]; vehicle 105±24,312±103%
same,SHP mRNA in mouse liver compared to vehicle set as 100%,[5]; vehicle 108+29,410±147%
same,FGF15 mRNA in mouse liver compared to vehicle set as 100%,[5]; vehicle 119±15,254±9%
same,CD36 mRNA expression compared to vehicle set as 100%,[6],119±33%
same,FAM3A mRNA expression compared to vehicle set as 100%,[6],112±12%
